Results from ChEMBL document CHEMBL4665642, “Anticancer profile of newly synthesized BRAF inhibitors possess 5-(pyrimidin-4-yl)imidazo[2,1-b]thiazole scaffold” (Bioorg Med Chem, 2019).

What was measured:
Assay type in all cases: functional
Details in all cases: read-out: Activity
SF-268 = assay: Cytotoxicity against human SF-268 cells assessed as cell viability at 10 uM incubated for 48 hrs by sulforhodamine B assay relative to control
M14 = assay: Cytotoxicity against human M14 cells assessed as cell viability at 10 uM incubated for 48 hrs by sulforhodamine B assay relative to control
786-0 = assay: Cytotoxicity against human 786-0 cells assessed as cell viability at 10 uM incubated for 48 hrs by sulforhodamine B assay relative to control
RPMI-8226 = assay: Cytotoxicity against human RPMI-8226 cells assessed as cell viability at 10 uM incubated for 48 hrs by sulforhodamine B assay relative to control
EKVX = assay: Cytotoxicity against human EKVX cells assessed as cell viability at 10 uM incubated for 48 hrs by sulforhodamine B assay relative to control
TK-10 = assay: Cytotoxicity against human TK-10 cells assessed as cell viability at 10 uM incubated for 48 hrs by sulforhodamine B assay relative to control
SK-MEL-5 = assay: Cytotoxicity against human SK-MEL-5 cells assessed as cell viability at 10 uM incubated for 48 hrs by sulforhodamine B assay relative to control
NCI-H322M = assay: Cytotoxicity against human NCI-H322M cells assessed as cell viability at 10 uM incubated for 48 hrs by sulforhodamine B assay relative to control
SNB-75 = assay: Cytotoxicity against human SNB-75 cells assessed as cell viability at 10 uM incubated for 48 hrs by sulforhodamine B assay relative to control
SNB-19 = assay: Cytotoxicity against human SNB-19 cells assessed as cell viability at 10 uM incubated for 48 hrs by sulforhodamine B assay relative to control
MDA-MB-435 = assay: Cytotoxicity against human MDA-MB-435 cells assessed as cell viability at 10 uM incubated for 48 hrs by sulforhodamine B assay relative to control
SF-295 = assay: Cytotoxicity against human SF-295 cells assessed as cell viability at 10 uM incubated for 48 hrs by sulforhodamine B assay relative to control
HCT-116 = assay: Cytotoxicity against human HCT-116 cells assessed as cell viability at 10 uM incubated for 48 hrs by sulforhodamine B assay relative to control
K562 = assay: Cytotoxicity against human K562 cells assessed as cell viability at 10 uM incubated for 48 hrs by sulforhodamine B assay relative to control
KM12 = assay: Cytotoxicity against human KM12 cells assessed as cell viability at 10 uM incubated for 48 hrs by sulforhodamine B assay relative to control
SK-OV-3 = assay: Cytotoxicity against human SK-OV-3 cells assessed as cell viability at 10 uM incubated for 48 hrs by sulforhodamine B assay relative to control
NCI-H522 = assay: Cytotoxicity against human NCI-H522 cells assessed as cell viability at 10 uM incubated for 48 hrs by sulforhodamine B assay relative to control
OVCAR-8 = assay: Cytotoxicity against human OVCAR-8 cells assessed as cell viability at 10 uM incubated for 48 hrs by sulforhodamine B assay relative to control
CAKI-1 = assay: Cytotoxicity against human CAKI-1 cells assessed as cell viability at 10 uM incubated for 48 hrs by sulforhodamine B assay relative to control
HOP-92 = assay: Cytotoxicity against human HOP-92 cells assessed as cell viability at 10 uM incubated for 48 hrs by sulforhodamine B assay relative to control
NCI/ADR-RES = assay: Cytotoxicity against human NCI/ADR-RES cells assessed as cell viability at 10 uM incubated for 48 hrs by sulforhodamine B assay relative to control
BT-549 = assay: Cytotoxicity against human BT-549 cells assessed as cell viability at 10 uM incubated for 48 hrs by sulforhodamine B assay relative to control
OVCAR-3 = assay: Cytotoxicity against human OVCAR-3 cells assessed as cell viability at 10 uM incubated for 48 hrs by sulforhodamine B assay relative to control
MOLT-4 = assay: Cytotoxicity against human MOLT-4 cells assessed as cell viability at 10 uM incubated for 48 hrs by sulforhodamine B assay relative to control
ACHN = assay: Cytotoxicity against human ACHN cells assessed as cell viability at 10 uM incubated for 48 hrs by sulforhodamine B assay relative to control
IGROV-1 = assay: Cytotoxicity against human IGROV-1 cells assessed as cell viability at 10 uM incubated for 48 hrs by sulforhodamine B assay relative to control
OVCAR-4 = assay: Cytotoxicity against human OVCAR-4 cells assessed as cell viability at 10 uM incubated for 48 hrs by sulforhodamine B assay relative to control
HOP-62 = assay: Cytotoxicity against human HOP-62 cells assessed as cell viability at 10 uM incubated for 48 hrs by sulforhodamine B assay relative to control
HCC 2998 = assay: Cytotoxicity against human HCC 2998 cells assessed as cell viability at 10 uM incubated for 48 hrs by sulforhodamine B assay relative to control
NCI-H23 = assay: Cytotoxicity against human NCI-H23 cells assessed as cell viability at 10 uM incubated for 48 hrs by sulforhodamine B assay relative to control
PC-3 = assay: Cytotoxicity against human PC-3 cells assessed as cell viability at 10 uM incubated for 48 hrs by sulforhodamine B assay relative to control
SW-620 = assay: Cytotoxicity against human SW-620 cells assessed as cell viability at 10 uM incubated for 48 hrs by sulforhodamine B assay relative to control
U-251 = assay: Cytotoxicity against human U-251 cells assessed as cell viability at 10 uM incubated for 48 hrs by sulforhodamine B assay relative to control
CCRF-CEM = assay: Cytotoxicity against human CCRF-CEM cells assessed as cell viability at 10 uM incubated for 48 hrs by sulforhodamine B assay relative to control
UACC-257 = assay: Cytotoxicity against human UACC-257 cells assessed as cell viability at 10 uM incubated for 48 hrs by sulforhodamine B assay relative to control
UACC-62 = assay: Cytotoxicity against human UACC-62 cells assessed as cell viability at 10 uM incubated for 48 hrs by sulforhodamine B assay relative to control
OVCAR-5 = assay: Cytotoxicity against human OVCAR-5 cells assessed as cell viability at 10 uM incubated for 48 hrs by sulforhodamine B assay relative to control
Malme-3M = assay: Cytotoxicity against human Malme-3M cells assessed as cell viability at 10 uM incubated for 48 hrs by sulforhodamine B assay relative to control
UO-31 = assay: Cytotoxicity against human UO-31 cells assessed as cell viability at 10 uM incubated for 48 hrs by sulforhodamine B assay relative to control
COLO 205 = assay: Cytotoxicity against human COLO 205 cells assessed as cell viability at 10 uM incubated for 48 hrs by sulforhodamine B assay relative to control
SN12C = assay: Cytotoxicity against human SN12C cells assessed as cell viability at 10 uM incubated for 48 hrs by sulforhodamine B assay relative to control

O=C(NCCCNc1nccc(-c2c(-c3cccc(F)c3)nc3sccn23)n1)c1ccc(C(F)(F)F)cc1
viability at 10 µM (SF-268): 67.8% | viability at 10 µM (M14): 82.8% | viability at 10 µM (786-0): 58.9% | viability at 10 µM (RPMI-8226): 96.8% | viability at 10 µM (EKVX): 72.2% | viability at 10 µM (TK-10): 74% | viability at 10 µM (SK-MEL-5): 75.3% | viability at 10 µM (NCI-H322M): 90.3% | viability at 10 µM (SNB-75): 82.6% | viability at 10 µM (SNB-19): 87.6% | viability at 10 µM (MDA-MB-435): 68.7% | viability at 10 µM (SF-295): 87.5% | viability at 10 µM (HCT-116): 66.7% | viability at 10 µM (K562): 66.7% | viability at 10 µM (KM12): 85.4% | viability at 10 µM (SK-OV-3): 69% | viability at 10 µM (NCI-H522): 90.3% | viability at 10 µM (OVCAR-8): 73.9% | viability at 10 µM (CAKI-1): 62.5% | viability at 10 µM (HOP-92): 93.6% | viability at 10 µM (NCI/ADR-RES): 74.7% | viability at 10 µM (BT-549): 83.4% | viability at 10 µM (OVCAR-3): 82.3% | viability at 10 µM (MOLT-4): 44.8% | viability at 10 µM (ACHN): 64.5% | viability at 10 µM (IGROV-1): 41.8% | viability at 10 µM (OVCAR-4): 74.7% | viability at 10 µM (HOP-62): 124% | viability at 10 µM (HCC 2998): 112% | viability at 10 µM (NCI-H23): 95.5% | viability at 10 µM (PC-3): 70.8% | viability at 10 µM (SW-620): 111% | viability at 10 µM (U-251): 83% | viability at 10 µM (CCRF-CEM): 89.1% | viability at 10 µM (UACC-257): 106% | viability at 10 µM (UACC-62): 69.6% | viability at 10 µM (OVCAR-5): 126% | viability at 10 µM (Malme-3M): 121% | viability at 10 µM (UO-31): 35.3% | viability at 10 µM (COLO 205): 74.8% | viability at 10 µM (SN12C): 80.1%

O=C(NCCNc1nccc(-c2c(-c3cccc(F)c3)nc3sccn23)n1)C1CCCCC1
viability at 10 µM (SF-268): 77.3% | viability at 10 µM (M14): 73.6% | viability at 10 µM (786-0): 69.1% | viability at 10 µM (RPMI-8226): 81.6% | viability at 10 µM (EKVX): 80.4% | viability at 10 µM (TK-10): 88.6% | viability at 10 µM (SK-MEL-5): 59.6% | viability at 10 µM (NCI-H322M): 104% | viability at 10 µM (SNB-75): 88.6% | viability at 10 µM (SNB-19): 96% | viability at 10 µM (MDA-MB-435): 65.5% | viability at 10 µM (SF-295): 93.6% | viability at 10 µM (HCT-116): 51.9% | viability at 10 µM (K562): 74.2% | viability at 10 µM (KM12): 81.6% | viability at 10 µM (SK-OV-3): 50.1% | viability at 10 µM (NCI-H522): 79.3% | viability at 10 µM (OVCAR-8): 56.9% | viability at 10 µM (CAKI-1): 70.4% | viability at 10 µM (HOP-92): 135% | viability at 10 µM (NCI/ADR-RES): 66.9% | viability at 10 µM (BT-549): 93.9% | viability at 10 µM (OVCAR-3): 76.3% | viability at 10 µM (MOLT-4): 55.4% | viability at 10 µM (ACHN): 67.1% | viability at 10 µM (IGROV-1): 45.1% | viability at 10 µM (OVCAR-4): 71.8% | viability at 10 µM (HOP-62): 109% | viability at 10 µM (HCC 2998): 104% | viability at 10 µM (NCI-H23): 97% | viability at 10 µM (PC-3): 75.2% | viability at 10 µM (SW-620): 114% | viability at 10 µM (U-251): 90.5% | viability at 10 µM (CCRF-CEM): 70% | viability at 10 µM (UACC-257): 113% | viability at 10 µM (UACC-62): 58.4% | viability at 10 µM (OVCAR-5): 141% | viability at 10 µM (Malme-3M): 130% | viability at 10 µM (UO-31): 40.3% | viability at 10 µM (COLO 205): 53.5% | viability at 10 µM (SN12C): 67.5%
